Values after ≈ are worked out from the molar mass of the structure shown.
How the values were obtained:
[1] = tested on: IL-1β; assay: LPS-induced IL-1β release in whole human blood; format: cell-based; settings: whole human blood + LPS; 16 hours (Example 13)
Procedure: Whole human blood was treated with LPS to stimulate inflammatory responses. […] The inflammatory molecule IL-1β was measured after 16 hours.

[2] = Plasma pharmacokinetics after oral multi-dose anatabine polacrilex; format: in vivo, Sprague-Dawley rats; settings: for t1/2, terminal / AUC0→∞: rat; for t1/2, terminal: after the final dose; for AUC0→∞: males and females combined
Procedure: This study consisted of two groups of 8 animals each, 4 males and 4 females.
The vehicle was sterile phosphate buffered saline (PBS) (Amresco). […] Two formulations were prepared; one for each of the two treatment groups. The test compound was formulated for each treatment group just prior to the first dose administration and constantly stirred until dosing was completed (Table 37). Four aliquots of each dose level formulation were collected and stored at −80° C.
The animals were weighed prior to dosing and received three doses p.o. of test compound at a volume of 5 mL/kg. Blood was collected via the venus plexus (retro-orbital) into tubes containing (K2) EDTA. No more than 0.5 mL was collected per time point.
Sample preparation. Plasma samples were treated with three volumes of methanol containing internal standard at 1 μM (R,S)-Antabine-2,4,5,6-d4), incubated 10 min at 4° C., and centrifuged. The amount of the test agent in the supernatant was determined by LC/MS/MS.
Analysis. Samples were analyzed by LC/MS/MS using an Agilent 6410 mass spectrometer coupled with an Agilent 1200 high pressure liquid chromatography (HPLC) and a CTC PAL chilled autosampler, all controlled by MassHunter software (Agilent). After separation on a Hydrophilic interaction liquid chromatography (HILIC) HPLC column (Sepax) using an acetonitrile-ammonium acetate/acetic acid gradient system, peaks were analyzed by mass spectrometry (MS) using ESI ionization in multiple reaction monitoring (MRM) mode. MassHunter software was used to calculate the concentration of the test compounds in samples from the peak area using the appropriate calibration curves.
Descriptive statistics were calculated for all pharmacokinetic parameters. Elimination half-lives (t1/2) were calculated by linear regression of logarithmically transformed plasma concentration data for each period between doses and following the final dose.
Total areas under the plasma concentration curves (AUC) and under the first moment curves (AUMC) were calculated using linear trapezoidal summation across all concentration time points as well as for intervals between each dose administration and following the final dose. […] Mean absorption times (MAT) were calculated according to the following relation: […]

[3] = Physical signs after oral multi-dose administration (Example 5); format: in vivo, Sprague-Dawley rats; settings: rat; oral gavage 0.6 or 6.0 mg/kg BW in three divided doses
Description: The physical signs of each animal were monitored following administration of the test compound.

[4] = tested on: NFκB; assay: NFκB luciferase assay (inhibition of TNFα-induced NFκB activity); format: cell-based, Human; settings: Homo sapiens; 20 ng/ml TNFα; HEK293 NFκB luciferase
Procedure: The smokeless tobacco used in these experiments was plain long-leaf Copenhagen tobacco purchased from a local vendor. Crude extract was extracted with methanol and water and clarified by centrifugation and filtration. The alkaloid extract was prepared from sodium hydroxide and methanol extraction, organic phase separation and purification. All treatment samples were prepared as a function of weight (μg/ml), and all samples were diluted in DMSO.
Human […] kidney cells (HEK293) transfected with an NFκB luciferase reporter were challenged with TNFα for three hours, then samples were applied to the challenged cells.
The effect of S-(−)-anatabine on TNFα-induced NFκB activity in vitro was determined as described in Example 1.

[5] = Treatment of a patient with Hashimoto's thyroiditis; format: in vivo, human; settings: one patient
Description: This example illustrates administering anatabine for treating thyroiditis. A patient had been afflicted with Hashimoto's thyroiditis for approximately 5 years. The patient's condition had advanced to a state where the treating physician recommended a thyroid lobectomy.

[6] = biological target: nAChR α3/β4 (Homo sapiens, UniProt P30926+P32297); assay: nAChR α3/β4 channel agonist assay (FLIPR); format: cell-based; settings: test conc 1 μM; 100% = 30 μM Ach, 0% = HBPS
Procedure: (§1) Briefly, cells were incubated with […] dye for 30 min at 37° C.

[7] = biological target: T1, nAChR α4/β2 (Homo sapiens, UniProt P17787+P43681); assay: nAChR α4/β2 channel agonist assay (FLIPR); format: cell-based; settings: test conc 0.3 μM; 100% = 30 μM Ach, 0% = HBPS
T1 construct: host or cells: HEK293 cells, transient
Procedure: as §1

[8] = biological target: T2, nAChR α7 (Homo sapiens, UniProt P36544); assay: nAChR α7 channel agonist assay (FLIPR); format: cell-based; settings: in presence of PNU-120596, 100% = 30 μM Ach+10 μM PNU-120596, 0% = HBPS
T2 construct: host or cells: CHO cells coexpressing RIC-3
Procedure: as §1
Therefore, the assay of agonist activity for either Ach or for the test articles was conducted in the presence of the positive allosteric modulator.

[9] = biological target: T2, nAChR α7; assay: nAChR α7 channel positive allosteric modulator assay (FLIPR); format: cell-based; settings: with 30 μM Ach, 100% = 30 μM Ach+10 μM PNU-120596, 0% = 30 μM Ach
Procedure: as §1

[10] = biological target: T2, nAChR α7; assay: nAChR α7 channel antagonist assay (FLIPR); format: cell-based; settings: with 300 μM Ach+10 μM PNU-120596, control antagonist 10 μM MLA
Procedure: as §1

T2 sequence (P36544 23-502): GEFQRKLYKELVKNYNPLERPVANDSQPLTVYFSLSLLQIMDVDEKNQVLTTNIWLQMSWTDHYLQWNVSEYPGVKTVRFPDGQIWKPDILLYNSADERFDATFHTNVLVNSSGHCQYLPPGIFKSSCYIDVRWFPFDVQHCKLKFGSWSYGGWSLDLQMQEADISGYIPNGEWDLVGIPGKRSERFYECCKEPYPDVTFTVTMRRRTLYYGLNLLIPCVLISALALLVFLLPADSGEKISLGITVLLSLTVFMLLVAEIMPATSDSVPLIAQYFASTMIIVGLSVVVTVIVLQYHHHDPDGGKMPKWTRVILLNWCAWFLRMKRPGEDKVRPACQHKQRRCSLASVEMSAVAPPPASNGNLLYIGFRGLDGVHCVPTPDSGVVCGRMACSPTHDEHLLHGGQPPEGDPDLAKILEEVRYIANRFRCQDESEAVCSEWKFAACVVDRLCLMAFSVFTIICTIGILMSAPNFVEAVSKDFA
T1 sequence (P43681 29-627): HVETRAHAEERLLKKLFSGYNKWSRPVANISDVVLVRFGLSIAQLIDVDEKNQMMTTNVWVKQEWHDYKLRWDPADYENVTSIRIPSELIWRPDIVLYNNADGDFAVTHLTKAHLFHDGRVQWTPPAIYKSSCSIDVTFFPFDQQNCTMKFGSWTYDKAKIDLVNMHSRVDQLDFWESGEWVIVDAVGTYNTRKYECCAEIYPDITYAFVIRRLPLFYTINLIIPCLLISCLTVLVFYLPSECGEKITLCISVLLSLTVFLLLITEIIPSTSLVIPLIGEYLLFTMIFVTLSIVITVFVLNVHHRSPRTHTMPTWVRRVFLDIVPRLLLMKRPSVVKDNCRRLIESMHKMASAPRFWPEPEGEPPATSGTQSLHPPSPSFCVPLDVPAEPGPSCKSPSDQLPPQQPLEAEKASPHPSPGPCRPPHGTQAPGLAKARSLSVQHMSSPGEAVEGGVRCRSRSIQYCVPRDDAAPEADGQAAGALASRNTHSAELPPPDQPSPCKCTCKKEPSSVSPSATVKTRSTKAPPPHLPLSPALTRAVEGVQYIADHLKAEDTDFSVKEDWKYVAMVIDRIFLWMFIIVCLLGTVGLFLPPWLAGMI
T1 sequence (P17787 26-502): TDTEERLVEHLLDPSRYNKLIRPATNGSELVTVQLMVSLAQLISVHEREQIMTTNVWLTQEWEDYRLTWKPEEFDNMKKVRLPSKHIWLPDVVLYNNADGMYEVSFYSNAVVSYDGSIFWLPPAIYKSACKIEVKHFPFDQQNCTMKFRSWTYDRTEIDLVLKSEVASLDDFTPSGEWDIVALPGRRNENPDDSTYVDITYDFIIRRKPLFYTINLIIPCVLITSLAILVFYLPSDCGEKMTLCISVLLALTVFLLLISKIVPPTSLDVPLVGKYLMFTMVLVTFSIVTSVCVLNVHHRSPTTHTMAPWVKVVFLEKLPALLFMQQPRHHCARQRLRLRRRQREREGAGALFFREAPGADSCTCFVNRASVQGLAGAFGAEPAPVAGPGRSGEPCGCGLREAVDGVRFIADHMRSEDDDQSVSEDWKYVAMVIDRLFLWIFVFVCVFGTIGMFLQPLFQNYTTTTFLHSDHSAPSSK
Sequence of nAChR α3/β4 (P32297 32-505): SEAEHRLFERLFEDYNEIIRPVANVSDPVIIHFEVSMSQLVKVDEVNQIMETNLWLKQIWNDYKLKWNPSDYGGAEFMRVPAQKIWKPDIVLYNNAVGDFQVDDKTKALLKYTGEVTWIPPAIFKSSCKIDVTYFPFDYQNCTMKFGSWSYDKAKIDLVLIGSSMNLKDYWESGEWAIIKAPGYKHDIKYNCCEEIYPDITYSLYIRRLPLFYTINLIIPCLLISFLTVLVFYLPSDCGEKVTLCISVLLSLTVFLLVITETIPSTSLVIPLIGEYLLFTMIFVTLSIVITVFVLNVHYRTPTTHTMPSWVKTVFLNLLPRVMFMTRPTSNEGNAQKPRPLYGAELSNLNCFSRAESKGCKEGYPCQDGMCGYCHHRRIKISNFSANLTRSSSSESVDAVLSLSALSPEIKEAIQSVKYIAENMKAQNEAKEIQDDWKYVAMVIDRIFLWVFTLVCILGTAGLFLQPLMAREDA
Sequence of nAChR α3/β4 (P30926 22-498): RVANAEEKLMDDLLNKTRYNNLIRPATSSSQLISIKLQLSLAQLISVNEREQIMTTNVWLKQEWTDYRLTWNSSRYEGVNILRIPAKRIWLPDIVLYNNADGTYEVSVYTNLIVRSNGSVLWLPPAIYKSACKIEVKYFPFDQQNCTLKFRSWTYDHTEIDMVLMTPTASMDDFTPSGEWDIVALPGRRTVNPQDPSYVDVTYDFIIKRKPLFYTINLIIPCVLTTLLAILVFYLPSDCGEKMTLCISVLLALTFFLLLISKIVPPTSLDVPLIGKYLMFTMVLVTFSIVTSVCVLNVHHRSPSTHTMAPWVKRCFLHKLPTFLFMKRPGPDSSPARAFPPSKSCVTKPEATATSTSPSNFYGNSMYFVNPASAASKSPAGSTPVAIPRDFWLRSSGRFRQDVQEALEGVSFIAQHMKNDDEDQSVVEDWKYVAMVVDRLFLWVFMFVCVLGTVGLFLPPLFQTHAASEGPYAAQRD

CC(C)c1c(C(=O)Nc2ccccc2)c(-c2ccccc2)c(-c2ccc(F)cc2)n1CC[C@@H](O)C[C@@H](O)CC(=O)[O-].CC(C)c1c(C(=O)Nc2ccccc2)c(-c2ccccc2)c(-c2ccc(F)cc2)n1CC[C@@H](O)C[C@@H](O)CC(=O)[O-].[Ca+2] [LIPITOR®, reference compound]
accumulation of IL-1β [1]: had no effect at the dose shown

anatabine polacrilex
Cp, min(2) ([2]; females, 6.0 mg/kg BW group): 180 ± 31 ng/mL | Cp, min, first minimum ([2]; females, 6.0 mg/kg BW group): 51.5 ± 26.0 ng/mL | t1/2, terminal ([2]; 0.6 mg/kg BW group): 1.79 ± 0.64 h | AUC0→∞ ([2]; 0.6 mg/kg BW p.o. in three divided doses): 285 ± 77 ng·h/mL | t1/2, terminal ([2]; 6.0 mg/kg BW group): 4.53 ± 1.77 h | AUC0→∞ ([2]; 6.0 mg/kg BW p.o. in three divided doses): 3496 ± 559 ng·h/mL | adverse signs [3]: no adverse signs were observed

C1=CC[C@@H](c2cccnc2)NC1 [S-(−)-anatabine]
IC50 [4]: ~330 µg/mL (≈ 2060 µM)

anatabine citrate
inflammation of the thyroid ([5]; about 600 μg tablets 20 times daily, 30 days): reduced to normal levels | voice distortion associated with thyroiditis ([5]; after an additional 30 days): no longer present

C1=CCC(c2cccnc2)NC1 (racemic) [Anatabine (racemate)]
Normalized % Activation [6]: −0.01% | Normalized % Activation [7]: 0.28% | Normalized % Activation ([8]; test conc 1 μm): 0.34% | Normalized % Activation ([8]; test conc 3 μm): 0.78% | Normalized % Potentiation ([9]; test conc 0.3 μm): −0.94% | Normalized % Potentiation ([9]; test conc 3 μm): −0.82% | Normalized % Potentiation ([9]; test conc 10 μm): −0.51% | Normalized % Potentiation ([9]; test conc 30 μm): −0.57% | Normalized % Potentiation ([9]; test conc 100 μm): −0.64% | Normalized % Potentiation ([9]; test conc 300 μm): −0.74% | Normalized % Inhibition ([10]; test conc 0.3 μm): 22.38% | Normalized % Inhibition ([10]; test conc 1 μm): 22.23% | Normalized % Inhibition ([10]; test conc 3 μm): 45.19% | Normalized % Inhibition ([10]; test conc 10 μm): 33.42% | Normalized % Inhibition ([10]; test conc 30 μm): 22.88% | Normalized % Inhibition ([10]; test conc 100 μm): 21.99% | Normalized % Inhibition ([10]; test conc 300 μm): 7.51% | Normalized % Inhibition ([10]; test conc 1000 μm): 10.84%

— patent US20160030407A1, “Method of Treating Inflammatory Lung Disease” (priority 2010, published 2016)
